Test results: ChEMBL document CHEMBL1201862, “PubChem BioAssay data set” (2004)
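In this assay, cells in 96-well plates receive the compound at five concentrations for 48 hours. Endpoints are linearly interpolated between the surrounding concentrations. GI50: concentration for 50% inhibition of growth.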 Calls of active or inactive are those of the source. Cut-off read from the data, not from the text of the source: active = GI50 up to about 1.1 µM and inactive = higher.

What was measured:
Assay in all cases: NCI tumour cell line growth inhibition, 48 h
COLO 205 = tested on: COLO 205
EKVX = tested on: EKVX
HOP-92 = tested on: HOP-92
KM-20L2 = tested on: KM-20L2
LOX IMVI = tested on: LOX IMVI
M19-MEL = tested on: M19-MEL
MOLT-4 = tested on: MOLT-4
NCI/ADR-RES = tested on: NCI/ADR-RES
OVCAR-5 = tested on: OVCAR-5
OVCAR-8 = tested on: OVCAR-8
SK-MEL-28 = tested on: SK-MEL-28
SNB-75 = tested on: SNB-75
SNB-78 = tested on: SNB-78
UO-31 = tested on: UO-31

Measured: GI50

CCOC(=O)CCc1c(C)c2c(O)cc(O)cc2oc1=O
inactive: COLO 205 > 100 µM | EKVX > 100 µM | HOP-92 > 100 µM | KM-20L2 > 100 µM | LOX IMVI > 100 µM | M19-MEL > 100 µM | MOLT-4 > 54.6 µM | NCI/ADR-RES > 100 µM | OVCAR-5 > 100 µM | OVCAR-8 > 100 µM | SK-MEL-28 > 100 µM | SNB-75 > 100 µM | SNB-78 > 100 µM | UO-31 > 87.1 µM
